Patent publication US20230203482A1, “Methods of Rescuing Stop Codons via Genetic Reassignment with ACE-tRNA” (THE WISTAR INSTITUTE OF ANATOMY AND BIOLOGY, priority 2017, published 2023)

B1: Glychr19.trna2: top performing glycine ACE-tRNA UGA suppressor, SEQ ID NO: 53 (nucleic acid)
chain: GCGTTGGTGGTATAGTGGTTAGCATAGCTGCCTTCAAAGCAGTTGACCCGGGTTCGATTCCCGGCCAACGCA
modifications: chemistry not fully specified

System: CFTR W1282X
Experiment: CFTR W1282X rescue, western blot in HEK cells
Assay type: cell-based, human
Conditions: CFTR W1282X cDNA co-expressed in HEK cells, antibody M3A7
Method: To assess is these novel tRNA could rescue CFTR channels harboring nonsense codons, they were co-expressed in mammalian HEK cells with a CFTR W1282X cDNA plasmid. The cellular preparations were analyzed by standard biochemical approaches via Western blot assessment of CFTR protein. […] Specifically, the “B” and “C” bands represent the full-length and fully mature, post-translationally proceeded CFTR protein at the cell surface, respectively. […] FIG. 9.
For expression in mammalian cells, the cDNA for the coding region and 200 base-pair of the 3′ untranslated region (UTR) of human CFTR was ligated into pcDNA3.1(+) (Promega, USA) using the KpnI and XbaI restriction enzymes. The G542tga and W1282tga mutations were introduced using QuickChange XL II (Stratagene, USA). For expression in Xenopus laevis oocytes, the cDNA for the coding region and 140 base-pair of the 5′ and 244 base-pair 3′ UTR of human CFTR was ligated into pGEM-HE (Promega, USA). Bothe the G542tga and W1282tga mutations were introduced using QuickChange XL II. The cDNA encoding the E. coli histidinol dehydrogenase was codon optimized for Mus musculus and synthesized (BioBasic Inc, Canada) with a c-terminal 8xHis-Strep-tag for protein purification from mammalian cells. The synthesized cDNA was ligated into pcDNA3.1(+) using EcoRI and XhoI restriction sites. […]

Molecule	rescue of full-length CFTR protein (B and C bands)
Trpchr17.trna39: top performing tryptophan ACE-tRNA UGA suppressor, SEQ ID NO: 48	robust populations of ‘B’ and ‘C’ CFTR immunopositive (antibody MA37) bands
B1	robust populations of ‘B’ and ‘C’ CFTR immunopositive (antibody MA37) bands
